Test results taken from patent US10029014B2, “Synthesis of novel asymmetric bow-tie PAMAM dendrimer-based conjugates for tumor-targeting drug delivery” (priority 2013, dated 2018).
Like-named read-outs stand apart in the source and are kept apart here.

Tests used:
in vitro = settings: human
MX-1 = experiment: Cytotoxicity assay, MTT method, MX-1 cells; settings: read-out: Cytotoxicity (IC50, nM) MX-1
ID-8 = experiment: Cytotoxicity assay, MTT method, ID-8 cells; settings: read-out: Cytotoxicity (IC50, nM) ID-8
WI-38 = experiment: Cytotoxicity assay, MTT method, WI-38 cells; settings: read-out: Cytotoxicity (IC50, nM) WI-38; 72 hours of drug exposure at 37° C. under 5% CO2
[1] = 72 hours of drug exposure at 37° C. under 5% CO2

Row | SMILES | IC50 at 72 h (in vitro) | IC50 (MX-1; Homo sapiens, MX1, 72 h) | IC50 (ID-8; Mus musculus, ID8, 72 h) | IC50 (MX-1; [1]) | IC50 (ID-8; [1]) | IC50 (WI-38)
1 | CC(=O)O[C@H]1C(=O)[C@@]2(C)[C@H]([C@H](OC(=O)c3ccccc3)[C@]3(O)C[C@H](OC(=O)[C@H](O)[C@@H](NC(=O)c4ccccc4)c4ccccc4)C(C)=C1C3(C)C)[C@]1(OC(C)=O)CO[C@@H]1C[C@@H]2O [Paclitaxel] | 175 nM | 3.83 nM | 21.2 nM | – | – | –
2 | CC(=O)O[C@@]12CO[C@@H]1C[C@H](O)[C@@]1(C)C(=O)[C@H](OC(=O)C3CC3)C3=C(C)[C@@H](OC(=O)[C@H](O)[C@H](C=C(C)C)NC(=O)OC(C)(C)C)C[C@@](O)([C@@H](OC(=O)c4ccccc4)[C@H]21)C3(C)C [SB-T-1214] | – | – | – | 2.9 nM | 1.89 nM | 4.14 nM
